Experimental data published in US12570599B2, “Process for preparing acyl-capped 3-hydroxycarboxylic acids and their salts and esters” (KetoLipix Therapeutics GmbH, priority 2019, dated 2026).

Experiments:
[1] = system: pancreatin (Panzytrat 40,000); assay: Cleavage experiments with pancreatin in water, followed by acid number; type: in vitro ADME, porcine; details: each ester in its pure form, 50° C.
Experimental: 2 g of each of the 3-acetoacetate-BHB ethyl esters prepared as described above and the 3-acetoacetate-BHB fatty alcohol esters prepared as described above are dissolved in 50 g water and 0.5 g (1% by weight) pancreatin is added. The pancreatin is used in the form of the commercially available product Panzytrat® 40,000 from the Allergan company. The whole mixture is stirred on a hot plate at 50° C.; the course of the reaction is determined and monitored by continuously recording the acid number over time. […] This is confirmed by corresponding analytics. The experiment proves that both the 3-acetylaceto-BHB ethyl ester according to the invention and the functionalized derivatives (i. e. 3-acetylaceto-BHB fatty alcohol esters) are suitable physiological precursors for 3-hydroxybutyric acid for the corresponding keto body therapies. The experiments are repeated and verified using each ester in its pure form.

[2] = Cleavage experiments in FaSSIF medium simulating the intestinal tract, with or without pancreatin (Panzytrat); type: in vitro ADME; details: in the presence or absence of pancreatin
From the text: (§1) Esters tested: • 3-Acetylaceto-BHB ethyl ester • 3-Acetylaceto-BHB decyl ester • 3-Acetylaceto-BHB oleyl ester • 3-Acetylaceto-BHB cetyl ester • 3-Acetylaceto-BHB-margaryl ester • 3-Acetylaceto-BHB stearyl ester • 3-Acetylaceto-BHB behenyl ester • 3-Acetylaceto-BHB melissyl ester • 3-Acetylaceto-BHB palmitoyl ester • 3-Acetylaceto-BHB linoleyl ester For the cleavage experiments under near-body conditions two media are investigated: • FaSSGF, which simulates the stomach • FaSSIF, which simulates the intestinal tract Both media are from the company Biorelevant®, Ltd. in Great Britain. In addition, in some experiments porcine pancreas is added (Panzytrat® 40,000, Fa. Allergan).
(§2) Under FaSSIF conditions, a lower conversion using Panzytrat® takes place.

[3] = Cleavage experiments in FaSSGF medium simulating the stomach, with or without pancreatin (Panzytrat); type: in vitro ADME; details: in the presence or absence of pancreatin
From the text: as §1, §2

[4] = several grams taken, patients; cited from earlier work

cleavage by pancreatin [1]	cleavage in intestinal medium [2]	cleavage in gastric medium [3]	SMILES	duration of ketosis [4]
cleaved by pancreatin	cleavage to 3-BHB in the free form	cleavage to 3-BHB in the free form	CCOC(=O)CC(C)OC(=O)CC(C)=O (stereo not shown) [3-acetylaceto-BHB ethyl ester, 3-acetylacetobutyric acid ethyl ester]	–
–	–	–	CC(O)CC(=O)O (stereo not shown) [3-hydroxybutyric acid]	three to four
